# Results from patent US20230129359A1, “MUSCARINIC RECEPTOR 4 ANTAGONISTS AND METHODS OF USE” (Neurocrine Biosciences, Inc., priority 2020, published 2023).
# Target: T1, human M4 receptor (Homo sapiens, UniProt P08173)
# T1 construct: expressed in transfected cells; host or cells: CHO cells
# T1 sequence (P08173 1-479): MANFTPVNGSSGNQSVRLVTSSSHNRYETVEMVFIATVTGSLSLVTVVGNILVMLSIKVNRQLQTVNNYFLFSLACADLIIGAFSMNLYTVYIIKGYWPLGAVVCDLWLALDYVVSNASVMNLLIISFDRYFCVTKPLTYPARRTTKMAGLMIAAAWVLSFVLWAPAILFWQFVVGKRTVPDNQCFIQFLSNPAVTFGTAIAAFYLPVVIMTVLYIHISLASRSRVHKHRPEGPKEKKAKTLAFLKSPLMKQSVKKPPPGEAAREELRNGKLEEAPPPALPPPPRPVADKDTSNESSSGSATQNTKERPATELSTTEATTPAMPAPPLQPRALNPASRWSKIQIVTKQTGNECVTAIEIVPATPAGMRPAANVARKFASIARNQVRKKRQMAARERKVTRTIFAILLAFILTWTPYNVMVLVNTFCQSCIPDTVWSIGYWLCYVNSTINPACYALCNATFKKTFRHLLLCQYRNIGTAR
# Assay: Radioligand ([3H]N-methylscopolamine) binding assay, membranes from CHO cells expressing human M4 receptor
# Settings: Ki against human M4 receptor; membranes from CHO cells; tritiated N-methylscopolamine 1.5 nM; read-out: K
# Method: Binding affinity (Ki) for the compounds was measured by inhibition of radioligand binding to membranes from CHO cells expressing human M4 receptor. Membranes were prepared by nitrogen cavitation and differential centrifugation as previously described (Hoare et al., Mol. Pharmacol. 2003 March; 63(3): 751-65). The radioligand employed was tritiated N-methylscopolamine, used at a concentration of 1.5 nM. A dose-response of twelve concentrations of compound was used, ranging from […]. The assay buffer was 50 mM HEPES, 100 mM NaCl, 5 mM MgCl2, 1 mM ethylenediaminetetraacetic acid, pH-adjusted to pH 7.4. Membranes, radioligand and compound were incubated together for 90 minutes at 37° C., in a total volume of 150 μL in a 96-well plate. Receptor-bound radioligand was then collected by harvesting the assay over glass fiber filters pretreated with polyethylenimine to trap the cell membranes, using rapid vacuum filtration. Harvesting and radioactivity counting was conducted as previously described (see, e.g., Hoare et al., Mol. Pharmacol. 2003 63(3):751-65); Erratum at Mol. Pharmacol. 2005 July; 68(1): 260).
row,SMILES,Ki
1,"C[C@@H]1CN(c2ncc(C(F)(F)F)cn2)[C@@H](C)CN1C(=O)NC1CC2(C1)CN(Cc1ccccc1)C2 [Compound 1, (2R,5S)—N-{2-Benzyl-2-azaspiro[3.3]heptan-6-yl}-2,5-dimethyl-4-[5-(trifluoromethyl)pyrimidin-2-yl]piperazine-1-carboxamide]",< 10 nM
2,"C[C@H]1CN(c2ncc(C(F)(F)F)cn2)CCN1C(=O)NC1CC2(C1)CN(Cc1ccccc1)C2 [Compound 5, (2S)-N-{2-benzyl-2-azaspiro[3.3]heptan-6-yl}-2-methyl-4-[5-(trifluoromethyl)pyrimidin-2-yl]piperazine-1-carboxamide]",10 to 100 nM
3,"C[C@H]1CN(C(=O)NC2CC3(C2)CN(Cc2ccccc2)C3)CCN1c1ncc(C(F)(F)F)cn1 [Compound 6, (3S)-N-{2-benzyl-2-azaspiro[3.3]heptan-6-yl}-3-methyl-4-[5-(trifluoromethyl)pyrimidin-2-yl]piperazine-1-carboxamide]",10 to 100 nM
4,"C[C@@H]1CN(c2ncc(C(F)(F)F)cn2)CCN1C(=O)NC1CC2(C1)CN(Cc1ccccc1)C2 [Compound 7, (2R)-N-{2-benzyl-2-azaspiro[3.3]heptan-6-yl}-2-methyl-4-[5-(trifluoromethyl)pyrimidin-2-yl]piperazine-1-carboxamide]",10 to 100 nM
5,"C[C@@H]1CN(c2ccc(F)c(C#N)c2)CCN1C(=O)NC1CC2(C1)CN(Cc1ccccc1)C2 [Compound 12, (2R)-N-{2-benzyl-2-azaspiro[3.3]heptan-6-yl}-4-(3-cyano-4-fluorophenyl)-2-methylpiperazine-1-carboxamide]",10 to 100 nM

# More lines, now with the values ahead:
row,Ki,SMILES
1,< 10 nM,"C[C@@H]1CN(c2ccc(OC(F)(F)F)c(C#N)c2)CCN1C(=O)NC1CC2(C1)CN(Cc1ccccc1)C2 [Compound 13, (2R)-N-{2-benzyl-2-azaspiro[3.3]heptan-6-yl}-4-[3-cyano-4-(trifluoromethoxy)phenyl]-2-methylpiperazine-1-carboxamide]"
2,100 to 1000 nM,"C[C@@H]1CN(c2cnc(C(F)(F)F)cn2)CCN1C(=O)NC1CC2(C1)CN(Cc1ccccc1)C2 [Compound 22, (2R)-N-{2-benzyl-2-azaspiro[3.3]heptan-6-yl}-2-methyl-4-[5-(trifluoromethyl)pyrazin-2-yl]piperazine-1-carboxamide]"
3,10 to 100 nM,"C[C@@H]1CN(c2ncc(C#N)cn2)[C@@H](C)CN1C(=O)NC1CC2(C1)CN(Cc1ccccc1)C2 [Compound 26, (2R,5S)-N-{2-benzyl-2-azaspiro[3.3]heptan-6-yl}-4-(5-cyanopyrimidin-2-yl)-2,5-dimethylpiperazine-1-carboxamide]"
4,10 to 100 nM,"C[C@@H]1CN(c2cnc(C(F)(F)F)cn2)[C@@H](C)CN1C(=O)NC1CC2(C1)CN(Cc1ccccc1)C2 [Compound 35, (2R,5S)-N-{2-benzyl-2-azaspiro[3.3]heptan-6-yl}-2,5-dimethyl-4-[5-(trifluoromethyl)pyrazin-2-yl]piperazine-1-carboxamide]"
5,10 to 100 nM,"C[C@@H]1CN(C(=O)NC2CC3(C2)CN(Cc2ccccc2)C3)[C@@H](C)CN1c1ncc(C(F)(F)F)cn1 [Compound 36, (2S,5R)-N-{2-benzyl-2-azaspiro[3.3]heptan-6-yl}-2,5-dimethyl-4-[5-(trifluoromethyl)pyrimidin-2-yl]piperazine-1-carboxamide]"
6,10 to 100 nM,"C[C@@H]1CN(C(=O)NC2CC3(C2)CN(Cc2ccccc2)C3)[C@@H](C)CN1c1cnc(C(F)(F)F)cn1 [Compound 37, (2S,5R)-N-{2-benzyl-2-azaspiro[3.3]heptan-6-yl}-2,5-dimethyl-4-[5-(trifluoromethyl)pyrazin-2-yl)piperazine-1-carboxamide]"
7,10 to 100 nM,"C[C@@H]1CN(c2ncc(C(F)(F)F)cn2)[C@H](C)CN1C(=O)NC1CC2(C1)CN(Cc1ccccc1)C2 [Compound 38, (2R,5R)-N-{2-benzyl-2-azaspiro[3.3]heptan-6-yl}-2,5-dimethyl-4-[5-(trifluoromethyl)pyrimidin-2-yl]piperazine-1-carboxamide]"
